Like-named read-outs stand apart in the source and are kept apart here. Blank lines part the entries; values can stand above or below the molecule they belong to.
Tests used:
A549 cells [1] = assay: Wound healing migration assay, A549; format: cell-based, human; settings: 1 µM
Description: After 24 h of growth, cells were placed in a 6-well plate, scratched using a 10 µL pipet tip on the cell surface. Then, gently wash twice with medium to remove the detached cells. The cells were treated with compound 10 b with 0.5 and 1.0 µM followed by 48 h incubation and photographed using an inverted microscope.

A549 cells [2] = assay: DAPI staining, A549; format: cell-based, human; settings: 1, 2 and 4 µM, 48 h
Description: DAPI staining assay, A549 or K562 cells were separately seeded at 4.0 × 10^5 cells per well in six–well plates and incubated for 24 h until adherent. Next, the cells were treated with 10 b at 0, 1, 2 and 4 µM for 48 h. Then the cells were fixed with 4% paraformaldehyde for 15 min, and 1 ml/well of DAPI staining dye was added for 20 min in the dark. After adding the anti-fluorescence quencher, the cells can be imaged by an inverted fluorescence microscope.

K562 cells [3] = assay: Annexin V-FITC/PI apoptosis flow cytometry, K562; format: cell-based, human; settings: 48 h, annexin V-FITC/PI
Description: (§1) Annexin-V/FITC assay, after the adherent cells grew stably in the 6-well plate, each group was reacted with different concentrations of compound solutions for 48 h. Then, cells were collected by trypsinization without EDTA, rinsed twice with PBS, followed by the Annexin V-FITC/PI apoptosis detection kit (Solarbio, Bei Jing, China) according to the kit instructions, flow cytometry by BD FACSCalibur instrument (American BD Company Shanghai Co., Ltd.).

[4] = test system: MDM2 and p53 levels in K562; assay: Western blot, K562; format: cell-based, human; settings: 0.5 µM, 48 h
Description: (§2) Cells were treated with different concentrations of compound for 48 h. After incubation, the cells were washed and collected. Total cell extracts were prepared with RIPA buffer, containing protease inhibitor and phosphatase inhibitor. The lysate was incubated at 0 °C for 60 min, and centrifuged at 12,000 rpm for 15 min at 4 °C to remove cellular debris. Next, the protein concentration was detected using BCA protein concentration assay kit (Beyotime, Shanghai). 20 µg of total protein was subjected to gel electrophoresis and transferred to PVDF membranes (Millipore, Burlington, MA, USA). After blocking in 5% BSA blocking buffer for 60 min, then incubated with primary antibody overnight at 4 °C, washed three times with TBST for 5 min each, followed by incubation with secondary antibody and washed. The blot was developed and exposed by chemiluminescence developer solution, which was placed on a chemiluminescence developer (Pierce, Rockford, Illinois, USA).

K562 cells [5] = assay: Cell cycle analysis (PI staining, flow cytometry), K562; format: cell-based, human
Description: (§3) A549 or K562 cells were separately seeded at 4.0 × 10^5cells/well in six-well plates and incubated for 24 h until adherent. […] After treatment, the cells were collected, and washed twice with pre-cooled PBS and then fixed with ice-cold ethanol (70%), subsequently kept 4 °C for overnight. After washing twice with PBS, cells were incubated at 37 °C with 100 µ L RNase A for 30 min. After this, cells were incubated with 400 µL PI for 30 min at 4 °C. Finally, the cell cycle distribution of compound 10 b was analysed via the BD FACSCalibur flow cytometry (American BD Corporation Shanghai Co. Ltd.)

[6] = test system: human non-small cell lung cancer cells (A549); assay: MTT antiproliferative assay, A549; format: cell-based
Description: (§4) A549, PC-3, HepG2 and K562 cells were purchased from the Kunming cell bank of the Chinese academy of sciences. All cell lines were cultured in DMEM or RPMI 1640 complete medium. Logarithmic growth cells were cultured in 96-well plates at a concentration of 10^4 cells per well and pre-cultured for 24 h before adding test compounds. The MTT test with 5-Fluorouracil and Gefitinib as reference compounds were used to evaluate antiproliferative activity of target compounds in four human cancer line cells. For the estimation of the inhibition concentration (IC50), the Graph Pad Prism (GraphPad Software, San Diego, CA) was used.

A549 cells [7] = assay: Cell cycle analysis (PI staining, flow cytometry), A549; format: cell-based, human
Description: as §3

[8] = test system: human prostate cancer cells (PC-3); assay: MTT antiproliferative assay, PC-3; format: cell-based; settings: for IC50: 48 h, MTT assay, read-out: In vitro cytotoxicity IC50, PC-3
Description: as §4

[9] = test system: normal cell line (HEK293); assay: MTT cytotoxicity, normal cell line HEK293; format: cell-based, human; settings: Homo sapiens, HEK293; 10 μM; read-out: Inhibition rate, HEK293
[10] = MTT cytotoxicity, normal cell line HEK293; format: cell-based, human; settings: human
[11] = test system: human liver cancer cells (HepG2); assay: MTT antiproliferative assay, HepG2; format: cell-based
Description: as §4

[12] = test system: human chronic myeloid leukaemia cells (K562); assay: MTT antiproliferative assay, K562; format: cell-based
Description: as §4

A549 cells [13] = assay: Annexin V-FITC/PI apoptosis flow cytometry, A549; format: cell-based, human; settings: 48 h, annexin V-FITC/PI
Description: as §1

[14] = test system: EGFR, p-EGFR, Akt and p-Akt levels in A549; assay: Western blot, A549; format: cell-based, human; settings: 0.5 and 1 μM, 48 h
Description: as §2

MCF-7 cell = test system: MCF-7 cell; design: method as in PMID 33130342; settings: cited from earlier work
[15] = target: epidermal growth factor receptor (EGFR); settings: read-out: EGFR inhibition IC50; cited from earlier work

IC50 ([6]; A549, Table 2, unit inferred, repeats Table 1, read-out: A549 (IC50, Table 2)): 124 ± 50 nM | IC50 ([6]; A549, as stated in abstract and conclusion, read-out: IC50 against A549): 12 nM | IC50 ([12]; K562, Table 2, unit inferred, repeats Table 1, read-out: K562 (IC50, Table 2)): 13.2 ± 10 nM | IC50 ([12]; K562, as stated in abstract and conclusion, read-out: IC50 against K562): 10 nM
SMILES: COc1cc(-c2nnc(SCC(=O)Nc3cc(-c4c[nH]c5ccccc45)n[nH]3)s2)cc(OC)c1OC [Compound 10b, N-(3-(1H-indol-3-yl)-1H-pyrazol-5-yl)-2-((5-(3,4,5-trimethoxyphenyl)-1,3,4-thiadiazol-2-yl)thio)acetamide]
migration of A549 cells, in words (A549 cells [1]): could inhibit the migration of A549 cells | apoptosis by DAPI staining, in words (A549 cells [2]): induced apoptosis | Q2, late apoptotic cells, K562 (K562 cells [3]; 1 μM): 58.2% | Q2, late apoptotic cells, K562 (K562 cells [3]; 2 μM): 67.8% | Q2, late apoptotic cells, K562 (K562 cells [3]; 4 μM): 73.2% | MDM2 expression in K562 [4]: significantly downregulated | p53 protein level in K562 [4]: upregulated in a certain extent | DNA contents of the live population, G2/M phase, K562 (K562 cells [5]; 4 µM, 48 h): 27.60% | DNA contents of the live population, S phase, K562 (K562 cells [5]; 4 µM, 48 h): 26.47% | cell cycle arrest in words, K562 (K562 cells [5]; dose-dependent, 1, 2, 4 µM): arresting cells in the G2/M phase | inhibition at 10 µM ([6]; A549, 10 μM, read-out: Inhibition rate, A549): 96.2 ± 0.737% | IC50 ([6]; A549, 48 h, MTT assay, 48 h, read-out: In vitro cytotoxicity IC50, A549): 120 nM | DNA contents of the live population, G0/G1 phase, A549 (A549 cells [7]; 4 µM, 48 h): 38.60% | DNA contents of the live population, G2/M phase, A549 (A549 cells [7]; 4 µM, 48 h): 24.33% | DNA contents of the live population, S phase, A549 (A549 cells [7]; 4 µM, 48 h): 27.47% | cell cycle arrest in words, A549 (A549 cells [7]; dose-dependent, 1, 2, 4 µM): arresting cells in the G2/M phase | IC50 ([8]; Homo sapiens): 850 nM | inhibition at 10 µM ([8]; Homo sapiens, 10 μM, read-out: Inhibition rate, PC-3): 88.4 ± 5.99% | IC50 [8]: 853 ± 720 nM | inhibition at 10 µM [9]: 77.9 ± 2.08% | IC50 at 48 h ([10]; HEK293 cells (normal cell line), MTT assay, 48 h, normal cell line, CC50, read-out: In vitro cytotoxicity IC50, HEK293): 1120 ± 1390 nM | CC50 ([10]; HEK293 cells, Table 2, unit inferred, repeats Table 1): 1120 ± 1390 nM | inhibition at 10 µM ([11]; 10 μM, read-out: Inhibition rate, HepG2): 92.1 ± 3.01% | IC50 ([11]; MTT assay, 48 h, read-out: In vitro cytotoxicity IC50, HepG2): 210 ± 70 nM | inhibition at 10 µM ([12]; K562, 10 μM, read-out: Inhibition rate, K562): 97.2 ± 0.526% | IC50 ([12]; K562, 48 h, MTT assay, 48 h, read-out: In vitro cytotoxicity IC50, K562): 13.2 ± 10 nM | Q2, late apoptotic cells, A549 (A549 cells [13]; 1 μM): 8.36% | Q2, late apoptotic cells, A549 (A549 cells [13]; 2 μM): 16.0% | Q2, late apoptotic cells, A549 (A549 cells [13]; 4 μM): 35.7% | p-Akt protein level in A549 [14]: downregulated in a dose dependently manner | p-EGFR protein level in A549 [14]: downregulated in a dose dependently manner

SMILES: O=C(Nc1nnc(SCc2ccc(Cl)c(Cl)c2)s1)c1cn(C2CC2)c2cc(N3CCNCC3)c(F)cc2c1=O [Compound B]
apoptosis in MCF-7 cell, in words (MCF-7 cell): inducing apoptosis significantly

SMILES: C=CCSc1nnc(-c2cc3ccccc3[nH]2)n1N=Cc1c[nH]c2ccccc12 [Compound C]
IC50 [15]: 19.8 nM
